Experimental data from patent US6525001B1, “Substituted pyrimidine and pyridine herbicides” (Mid-American Commercialization Corporation, priority 1997, dated 2003).

How the values were obtained:
Format in all cases: in vivo
Set-up in all cases: key: 0 is no effect; 10 is complete control
rice (Oryza sativa) = test: Test B flood test
Summary of the method: (§1)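 Each value is a visual injury score relative to controls, with 10 meaning complete control and 0 no effect. Evaluation took place twelve to sixteen days after the 2-leaf-stage plants were treated and kept in the greenhouse.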

[1] = system: bamyardgrass (Echinochloa crus-galli); test: Test B flood test
Summary of the method: as §1

[2] = system: duck salad (Heteranthera limosa); test: Test B flood test
Summary of the method: as §1

[3] = system: smallflower flatsedge (Cyperus difformis); test: Test B flood test
Summary of the method: as §1

[4] = system: pigweed (Amaranthus retroflexus); test: Test B pre-/postemergence
Description: (§2) Seeds of bedstraw (Galium aparine), blackgrass (Alopecurus myosuroides), broadleaf signalgrass (Brachiaria decumbens), cocklebur (Xanthium strumarium), corn (Zea mays), crabgrass (Digitaria sanguinalis), giant foxtail (Setaria faberii), lambsquarters (Chenopodium album), momingglory (Ipomoea hederacea), pigweed (Amaranthus retroflexus), rape (Brassica napus), soybean (Glycine max), sugar beet (Beta vulgaris), velvetleaf (Abutilon theophrasti), wheat (Triticum aestivum), wild oat (Avena fatua) and purple nutsedge (Cyperus rotundus) tubers were planted and treated preemergence with test chemicals formulated in a non-phytotoxic solvent mixture which included a surfactant.
(§3) At the same time, these crop and weed species were also treated with postemergence applications of test chemicals formulated in the same manner. Plants ranged in height from 2 to 18 cm (1- to 4-leaf stage) for postemergence treatments. Plant species in the flood test consisted of rice (Oryza sativa), smallflower flatsedge (Cyperus difformis), duck salad (Heteranthera limosa) and bamyardgrass (Echinochloa crus-galli) grown to the 2-leaf stage for testing. Treated plants and controls were maintained in a greenhouse for twelve to sixteen days, after which all species were compared to controls and visually evaluated. Plant response ratings, summarized in Table B, are based on a scale of 0 to 10 where 0 is no effect and 10 is complete control. A dash (−) response means no test result.

[5] = system: broadleaf signalgrass (Brachiaria decumbens); test: Test B pre-/postemergence; conditions: for B. signalgrass plant response rating: Preemergence
Description: as §2, §3

[6] = system: wheat (Triticum aestivum); test: Test B pre-/postemergence
Description: as §2, §3

[7] = system: cocklebur (Xanthium strumarium); test: Test B pre-/postemergence; conditions: for Cocklebur plant response rating: Preemergence
Description: as §2, §3

[8] = system: blackgrass (Alopecurus myosuroides); test: Test B pre-/postemergence; conditions: for Blackgrass plant response rating: Preemergence
Description: as §2, §3

wild oat (Avena fatua) = test: Test B pre-/postemergence
Description: as §2, §3

[9] = system: purple nutsedge (Cyperus rotundus); test: Test B pre-/postemergence
Description: as §2, §3

[10] = system: bedstraw (Galium aparine); test: Test B pre-/postemergence; conditions: for Bedstraw plant response rating: Preemergence
Description: as §2, §3

[11] = system: crabgrass (Digitaria sanguinalis); test: Test B pre-/postemergence; conditions: for Crabgrass plant response rating: Preemergence
Description: as §2, §3

[12] = system: momingglory (Ipomoea hederacea); test: Test B pre-/postemergence
Description: as §2, §3

rape (Brassica napus) = test: Test B pre-/postemergence
Description: as §2, §3

[13] = system: velvetleaf (Abutilon theophrasti); test: Test B pre-/postemergence
Description: as §2, §3

[14] = system: sugar beet (Beta vulgaris); test: Test B pre-/postemergence
Description: as §2, §3

[15] = system: giant foxtail (Setaria faberii); test: Test B pre-/postemergence
Description: as §2, §3

soybean (Glycine max) = test: Test B pre-/postemergence
Description: as §2, §3

corn (Zea mays) = test: Test B pre-/postemergence; conditions: for Corn plant response rating: Preemergence
Description: as §2, §3

[16] = Rate 62 g/ha, Postemergence (flood test)
[17] = Rate 125 g/ha, Postemergence section (flood test species)
[18] = Rate 250 g/ha, Postemergence (flood test species)
[19] = Rate 125 g/ha, Postemergence, flood test
[20] = Rate 250 g/ha, Postemergence (so in the source)

## Cc1cnc(-c2ccccc2F)nc1Cc1cccc(C(F)(F)F)c1 [Compound 26]
Rice (Oryza sativa); [16]
  Plant response rating, Rice: 0
Rice (Oryza sativa); [17]
  Rice plant response rating: 0
Rice (Oryza sativa); [18]
  Plant response rating, Rice: 0
[1]; [16]
  Plant response rating, Barnyardgrass: 0
[1]; [19]
  Plant response rating, Barnyardgrass: 0
[1]; [18]
  Plant response rating, Barnyardgrass: 2
[2]; [16]
  Plant response rating, Ducksalad: 0
[2]; [19]
  Plant response rating, Ducksalad: 0
[2]; [18]
  Plant response rating, Ducksalad: 0
[3]; [16]
  Plant response rating, S. Flatsedge: 0
[3]; [17]
  S. Flatsedge plant response rating: 1
[3]; [18]
  Plant response rating, S. Flatsedge: 2
[4]; Rate 62 g/ha, Postemergence
  Plant response rating, Redroot pigweed: 6
[4]; Rate 62 g/ha, Preemergence
  Redroot pigweed plant response rating: 0
[4]; Rate 125 g/ha, Postemergence
  Redroot pigweed plant response rating: 6
[4]; Rate 125 g/ha, Preemergence
  Redroot pigweed plant response rating: 0
[4]; Rate 250 g/ha, Postemergence
  Plant response rating, Redroot pigweed: 8
[4]; [20]
  Plant response rating, Redroot pigweed: 4
[5]; Rate 62 g/ha, Postemergence
  Plant response rating, B. signalgrass: 1
[5]; Rate 62 g/ha
  B. signalgrass plant response rating: 0
[5]; Rate 125 g/ha, Postemergence
  Plant response rating, B. signalgrass: 1
[5]; Rate 125 g/ha
  B. signalgrass plant response rating: 0
[5]; Rate 250 g/ha, Postemergence
  Plant response rating, B. signalgrass: 2
[5]; Rate 250 g/ha, Postemergence as printed in head r139 (second section for compounds 26-50)
  Plant response rating, B. signalgrass: 1
[6]; Rate 62 g/ha, Postemergence
  Plant response rating, Wheat: 0
[6]; Rate 62 g/ha, Preemergence
  Wheat plant response rating: 0
[6]; Rate 125 g/ha, Postemergence
  Wheat plant response rating: 0
[6]; Rate 125 g/ha, Preemergence
  Plant response rating, Wheat: 0
[6]; Rate 250 g/ha, Postemergence
  Plant response rating, Wheat: 0
[6]; [20]
  Plant response rating, Wheat: 0
[7]; Rate 62 g/ha, Postemergence
  Plant response rating, Cocklebur: 2
[7]; Rate 62 g/ha
  Cocklebur plant response rating: 0
[7]; Rate 125 g/ha, Postemergence
  Plant response rating, Cocklebur: 2
[7]; Rate 125 g/ha
  Cocklebur plant response rating: 0
[7]; Rate 250 g/ha, Postemergence
  Plant response rating, Cocklebur: 3
[7]; [20]
  Plant response rating, Cocklebur: 0
[8]; Rate 62 g/ha, Postemergence
  Plant response rating, Blackgrass: 0
[8]; Rate 62 g/ha
  Blackgrass plant response rating: 0
[8]; Rate 125 g/ha, Postemergence
  Plant response rating, Blackgrass: 1
[8]; Rate 125 g/ha
  Blackgrass plant response rating: 0
[8]; Rate 250 g/ha, Postemergence
  Plant response rating, Blackgrass: 1
[8]; [20]
  Plant response rating, Blackgrass: 0
Wild oat (Avena fatua); Rate 62 g/ha, Postemergence
  Plant response rating, Wild oats: 0
Wild oat (Avena fatua); Rate 62 g/ha, Preemergence
  Wild oats plant response rating: 0
Wild oat (Avena fatua); Rate 125 g/ha, Postemergence
  Wild oats plant response rating: 0
Wild oat (Avena fatua); Rate 125 g/ha, Preemergence
  Plant response rating, Wild oats: 0
Wild oat (Avena fatua); Rate 250 g/ha, Postemergence
  Plant response rating, Wild oats: 0
Wild oat (Avena fatua); [20]
  Plant response rating, Wild oats: 0
[9]; Rate 62 g/ha, Postemergence
  Plant response rating, Nutsedge: 0
[9]; Rate 62 g/ha, Preemergence
  Nutsedge plant response rating: 0
[9]; Rate 125 g/ha, Postemergence
  Nutsedge plant response rating: 0
[9]; Rate 125 g/ha, Preemergence
  Nutsedge plant response rating: 0
[10]; Rate 62 g/ha, Postemergence
  Plant response rating, Bedstraw: 1
[10]; Rate 62 g/ha
  Bedstraw plant response rating: 0
[10]; Rate 125 g/ha, Postemergence
  Plant response rating, Bedstraw: 3
[10]; Rate 125 g/ha
  Bedstraw plant response rating: 0
[10]; Rate 250 g/ha, Postemergence
  Plant response rating, Bedstraw: 6
[10]; [20]
  Plant response rating, Bedstraw: 0
[11]; Rate 62 g/ha, Postemergence
  Plant response rating, Crabgrass: 1
[11]; Rate 62 g/ha
  Crabgrass plant response rating: 0
[11]; Rate 125 g/ha, Postemergence
  Plant response rating, Crabgrass: 1
[11]; Rate 125 g/ha
  Crabgrass plant response rating: 0
[11]; Rate 250 g/ha, Postemergence
  Plant response rating, Crabgrass: 1
[11]; [20]
  Plant response rating, Crabgrass: 1
[12]; Rate 62 g/ha, Postemergence
  Plant response rating, Morningglory: 3
[12]; Rate 62 g/ha, Preemergence
  Morningglory plant response rating: 0
[12]; Rate 125 g/ha, Postemergence
  Morningglory plant response rating: 3
[12]; Rate 125 g/ha, Preemergence
  Morningglory plant response rating: 0
[12]; Rate 250 g/ha, Postemergence
  Plant response rating, Morningglory: 3
[12]; [20]
  Plant response rating, Morningglory: 0
Rape (Brassica napus); Rate 62 g/ha, Postemergence
  Plant response rating, Rape: 3
Rape (Brassica napus); Rate 62 g/ha, Preemergence
  Rape plant response rating: 0
Rape (Brassica napus); Rate 125 g/ha, Postemergence
  Rape plant response rating: 6
Rape (Brassica napus); Rate 125 g/ha, Preemergence
  Rape plant response rating: 0
Rape (Brassica napus); Rate 250 g/ha, Postemergence
  Plant response rating, Rape: 6
Rape (Brassica napus); [20]
  Plant response rating, Rape: 0
[13]; Rate 62 g/ha, Postemergence
  Plant response rating, Velvetleaf: 1
[13]; Rate 62 g/ha, Preemergence
  Velvetleaf plant response rating: 0
[13]; Rate 125 g/ha, Postemergence
  Velvetleaf plant response rating: 1
[13]; Rate 125 g/ha, Preemergence
  Plant response rating, Velvetleaf: 0
[13]; Rate 250 g/ha, Postemergence
  Plant response rating, Velvetleaf: 2
[13]; [20]
  Plant response rating, Velvetleaf: 0
[14]; Rate 62 g/ha, Postemergence
  Plant response rating, Sugarbeets: 3
[14]; Rate 62 g/ha, Preemergence
  Sugarbeets plant response rating: 0
[14]; Rate 125 g/ha, Postemergence
  Sugarbeets plant response rating: 8
[14]; Rate 125 g/ha, Preemergence
  Plant response rating, Sugarbeets: 0
[14]; Rate 250 g/ha, Postemergence
  Plant response rating, Sugarbeets: 8
[14]; [20]
  Plant response rating, Sugarbeets: 0
[15]; Rate 62 g/ha, Postemergence
  Plant response rating, Giant foxtail: 1
[15]; Rate 62 g/ha, Preemergence
  Giant foxtail plant response rating: 0
[15]; Rate 125 g/ha, Postemergence
  Giant foxtail plant response rating: 1
[15]; Rate 125 g/ha, Preemergence
  Giant foxtail plant response rating: 1
[15]; Rate 250 g/ha, Postemergence
  Plant response rating, Giant foxtail: 1
[15]; [20]
  Plant response rating, Giant foxtail: 1
Soybean (Glycine max); Rate 62 g/ha, Postemergence
  Plant response rating, Soybean: 3
Soybean (Glycine max); Rate 62 g/ha, Preemergence
  Soybean plant response rating: 0
Soybean (Glycine max); Rate 125 g/ha, Postemergence
  Soybean plant response rating: 3
Soybean (Glycine max); Rate 125 g/ha, Preemergence
  Plant response rating, Soybean: 0
Soybean (Glycine max); Rate 250 g/ha, Postemergence
  Plant response rating, Soybean: 5
Soybean (Glycine max); [20]
  Plant response rating, Soybean: 0
Corn (Zea mays); Rate 62 g/ha, Postemergence
  Plant response rating, Corn: 1
Corn (Zea mays); Rate 62 g/ha
  Corn plant response rating: 0
Corn (Zea mays); Rate 125 g/ha, Postemergence
  Plant response rating, Corn: 1
Corn (Zea mays); Rate 125 g/ha
  Corn plant response rating: 0
Corn (Zea mays); Rate 250 g/ha, Postemergence
  Plant response rating, Corn: 1
Corn (Zea mays); [20]
  Plant response rating, Corn: 0
